Experimental findings from patent publication US20050239791A1, “Substituted 1-heteroaryl-4-substituted piperazine and piperidine analogues” (priority 2004, published 2005) are described below.

Like-named read-outs stand apart in the source and are kept apart here. Where only a bound is given, the exact number is not on record here.

In this assay the target is MCH receptor (Macaca fascicularis, UniProt A0A2K5VT41). The assay is described as follows: Calcium mobilization assay (Example 6). The assay is classed as cell-based, Cynomolgus macaque. From the text: This Example illustrates a representative functional assay for monitoring the response of cells expressing melanin concentrating hormone receptors to melanin concentrating hormone. This assay can also be used to determine if test compounds act as agonists or antagonists of melanin concentrating hormone receptors.
Chinese Hamster Ovary (CHO) cells (American Type Culture Collection; Manassas, Va.) are stably transfected with the MCH expression vector via calcium phosphate precipitation, and are grown to a density of 15,000 cells/well in FALCON™ black-walled, clear-bottomed 96-well plates (#3904, BECTON-DICKINSON, Franklin Lakes, N.J.) in Ham's F12 culture medium (MEDIATECH, Herndon, Va.) supplemented with 10% fetal bovine serum, 25 mM HEPES and 500 μg/mL (active) G418. Prior to running the assay, the culture medium is emptied from the 96 well plates. […]
Fluorescence response is monitored upon the addition of either […] or test compound by a FLIPR™ plate reader (Molecular Devices, Sunnyvale, Calif.) by excitation at 480 nm and emission at 530 nm.
In order to measure the ability of a test compound to antagonize the response of cells expressing MCH receptors to MCH, the EC50 of MCH is first determined. […]
Test compounds are dissolved in DMSO, diluted in 20 μL KRH buffer, and added to cells prepared as described above. […] Just prior to determining the fluorescence response, 100 μL human MCH diluted in KRH buffer to 2×EC50 is automatically added by the FLIPR instrument to each well of the 96 well plate for a final sample volume of 200 μL and a final MCH concentration of EC50. […] Typically, antagonists of the MCH receptor decrease the fluorescence response by about 20%, preferably by about 50%, and most preferably by at least 80% as compared to matched controls. IC50 values for MCHR antagonists are determined using SIGMAPLOT software (SPSS Inc., Chicago, Ill.) and standard techniques. […]

MCH receptor, sequence (A0A2K5VT41 70-422): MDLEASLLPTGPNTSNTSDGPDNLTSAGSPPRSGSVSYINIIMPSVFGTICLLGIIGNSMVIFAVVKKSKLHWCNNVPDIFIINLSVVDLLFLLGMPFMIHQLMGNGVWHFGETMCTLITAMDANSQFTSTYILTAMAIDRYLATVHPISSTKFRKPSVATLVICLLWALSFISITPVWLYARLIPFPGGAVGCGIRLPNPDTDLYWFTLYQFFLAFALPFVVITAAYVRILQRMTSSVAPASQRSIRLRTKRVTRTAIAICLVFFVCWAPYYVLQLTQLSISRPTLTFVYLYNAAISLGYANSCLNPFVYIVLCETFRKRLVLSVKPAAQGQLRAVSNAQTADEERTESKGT

For the compound `COc1cc(N2CCN(C(C)c3ccnc4ccccc34)CC2)ccc1Cl` (stereo not drawn) [Example 2, 4-{1-[4-(4-chloro-3-methoxyphenyl)piperazin-1-yl]ethyl}quinoline], the EC50 is less than 1000 nM.
On to `Cc1nccc(CN2CCC(O)(c3ccc(Cl)c(C(F)(F)F)c3)CC2)c1C` [Example 3, 4-(4-chloro-3-trifluoromethylphenyl)-1-(2,3-dimethyl-pyridin-4-ylmethyl)-piperidin-4-ol], for which the EC50 (calcium mobilization (FLIPR, Fluo-3) in CHO cells stably transfected with the MCH expression vector, read-out: EC50, determined as described in Example 6) was less than 1000 nM.
`COc1cc(N2CCN(C(C)c3ccnc(C)c3C)CC2)ccc1Cl` (stereo not drawn) [Example 1, 1-(4-chloro-3-methoxyphenyl)-4-[1-(2,3-dimethylpyridin-4-yl)-ethyl]-piperazine]: the EC50 is less than 1000 nM.
